Reference: US20020107282A1, “Cosmetic composition containing an aminophenol derivative and an isoflavonoid” (L'OREAL, priority 2000, published 2002)

Tested on: fungal tyrosinase
Experiment: in vitro inhibition of the activity of fungal tyrosinase (OD at 475 nm)
Format: biochemical
Conditions: active agent alone in ethanol, C1 = 1.25 × 10^−4 M
Protocol: This test consists in measuring the absorbence (optical density OD) at 475 nm as a function of time for each of the depigmenting active agents tested. These agents are dissolved (at various concentrations) in a suitable solvent in the presence of a phosphate buffer, 1 ml of L-tyrosine at 2.0×10^−3 M in a phosphate buffer, 0.1 ml of L-Dopa at 1.0×10^−4 M in a phosphate buffer and 50 μl of a fungal tyrosinase solution at 1 g/l in a phosphate buffer, compared with a control consisting of the solvent used at the same concentration in the phosphate buffer. A percentage of inhibition is then determined by the following equation: [formula] […] These two active agents in the concentrations C1 and C2 found above are then mixed together. The theoretical percentage of inhibition of the mixture (or theoretical IC), corresponding to the sum of the percentages of inhibition observed for the individual compounds, is then calculated, and the percentage of inhibition obtained (or measured IC) is measured under the same experimental conditions as for the compounds tested separately.

Structure (SMILES): CCOC(=O)Nc1ccc(O)cc1 [N-ethoxy-carbonyl-4-aminophenol, N-ethyloxycarbonyl-4-aminophenol]
- IC obtained (%) (inhibition actually obtained): 23.5%
- Theoretical IC (%) (inhibition value that should be observed (close to 25%)): 24.8%
